# Assay results taken from publication PMC8398714, “Synthesis and Evaluation of Biological Activities of Bis(spiropyrazolone)cyclopropanes: A Potential Application against Leishmaniasis” (Molecules, 2021).
# Where two headings read alike, the source gives them in different places.
# Experiments:
# PC-3 = assay: MTS cell viability assay on PC-3 cells; format: cell-based; conditions: Homo sapiens, 100 µM, 48 h, Dox 1 µM, mean ± SEM, NA = no activity, read-out: Percentage (%) of inhibition, PC-3
# Experimental: (§1) Five tumor human cancer cell lines—cerebral astrocytoma (D-384), grade IV prostatic adenocarcinoma (PC-3), mammary adenocarcinoma (MCF-7), human colon carcinoma (RKO) and lung carcinoma (A-549)—along with one immortalized hamster cell line (CHO K-1) were used. The cells PC-3, MCF-7 and RKO were cultured in RPMI-1640, D-384 on DMEM and CHO K-1 on HAM F-12 medium supplemented with 10% fetal bovine serum (FBS, Invitrogen, Karlsruhe, Germany), 1% antibiotic-antimitotic solution (100 units/mL penicillin G, 100 µg/mL streptomycin, and 0.25 µg/mL amphotericin B, Gibco, Grand Island, NY, USA), and 1% L-glutamine (2 mM, Gibco). The cells were incubated at 37 °C in a 5% CO2 atmosphere. The viable cells were counted using the trypan blue exclusion method in a hemocytometer.
# (§2) The MTS (5-[3-(carboxymethoxy)phenyl]-3-(4,5-dimethyl-2-thiazolyl)-2-(4-sulfo- phenyl)-2H-tetrazolium inner salt) cell viability assay was used to assess the inhibitory effects of the extracts on the survival of human cancer cell lines. A total of 3–5 × 10^3 cells/well were seeded into 96-well plates and were allowed to adhere for 24 h. […] Each concentration/assay was performed three times. Dimethyl sulfoxide (DMSO) was used as a negative control at a final concentration of 0.1% v/v, and 1 µM Doxorubicin was used as a positive control. The cells were incubated with the treatments for 48 h, after which 20 µL MTS (5 mg/mL, Aqueous One Solution Reagent, Gibco) was added and further incubated for 4 h at 37 °C. The absorbance was measured at 570 nm. The data obtained with cells treated with DMSO were defined to represent 100% viability.
# [1] = Cytotoxicity, MTT assay on RAW 264.7 macrophages; format: cell-based; conditions: mouse
# Experimental: Raw 264.7 (ATCC® TIB-71™) was maintained in Dulbecco’s Modified Eagle Medium (DMEM) (Gibco, Invitrogen, Gibco, Carlsbad, CA, USA) supplemented with 10% fetal bovine serum (FBS) (Eurobio, Les Ulis, France) and 100 IU/mL penicillin + 100 μg/mL streptomycin (Gibco), at 37 °C in a 5% CO2 atmosphere. The medium was renewed once a week. The viability was determined using MTT (Thiazolyl Blue Tetrazolium Bromide) dye assay as described before for leishmanicidal activity assessment, with some variations. Here, 5 × 10^4 cells/well in a final volume of 100 µL were deposited into a 96-well plate, in triplicate. Saponin (2.4 mg/mL) and untreated cells were used as positive control and negative control, respectively. A stock solution was prepared in DMSO and immediately diluted in media to obtain different serial concentrations (100–0.01 µM). After 48 h exposure to the compounds, 10 µL/well of MTT (5 mg/mL MTT in PBS) were added, and the plate was incubated at 37 °C for 2 h in the dark. Cells were pelleted by centrifugation at 4400 rpm for 10 min and the media was removed. Then, 100 µL/well of DMSO were added and the absorbance at 570 nm was recorded; a reference wavelength of 630 nm was used for background subtraction.
# CHO-K1 cells = format: cell-based, hamster
# Experimental: Cells were mixed with 150 μL low-melting-point agarose 1% (LMP, Promega, Madison, WI, USA) and added to microscope slides previously prepared with normal-melting-point agarose 1% (NMP, Invitrogen, Carlsbad, CA, USA). A third LMP agarose layer (150 µL) was added. The slides were immersed in a cooled lysing solution (pH 10) with 10% DMSO, 1% Triton X-100 (Sigma Aldrich, Saint Louis, MO, USA), 2.5 M NaCl (Loba Chemie, Mumbai, India), 100 mM EDTA and 10 mM Tris (Invitrogen, Carlsbad, CA, USA) for 12 h at 4 °C. All steps after lysis were performed under darkness or yellow light to prevent additional DNA damage. The slides were immersed for 20 min in an electrophoresis buffer solution (pH 13) with NaOH 300 mM (Fisher Scientific, Waltham, MA, USA) and EDTA 1 mM (Invitrogen, Carlsbad, CA, USA) to allow for DNA unwinding. Electrophoresis was later performed at 25 V and 300 mA for 20 min. Slides were then sprayed with a neutralization buffer (pH 7.5) 0.4 M Tris (Sigma Aldrich, Saint Louis, MO, USA). Ethidium bromide (60 µL) was added to each slide, and a cover glass was placed on the gel. The DNA migration was analyzed using a ZEISS-Axioskop 2 plus microscope with fluorescence (40×) by scoring 100 cells per slide in duplicate. After that, the tail moment parameter was analyzed by a Comet Assay IV software (Perceptive Instruments Ltd., Bury St Edmunds, Suffolk, UK).
# [2] = DPPH radical scavenging assay; conditions: 30 min, 515 nm
# Experimental: The stock solution of the compounds was prepared by dissolving 4 in dimethyl sulfoxide (DMSO) to a concentration of 4 mg/mL. The solution was diluted with methanol until a concentration of 400 µg/mL was obtained and then used immediately.
# The experimental procedure was adapted from the literature. Briefly, 100 µL of a 0.2 mM methanol solution of DPPH (2, 2-diphenyl-1-picrylhydrazyl) radical were added to 100 µL of methanolic solutions of 4 prepared as serial two-fold dilutions from the stock solution in 96-well microfilter plates. Standards and edaravone were also prepared in the same concentrations. The mixture was incubated in dark at room temperature for 30 min and the absorbance was read at 515 nm on a Cytation 5 (BioTek) spectrophotometer.
# The % DPPH scavenging activity was then calculated by using the following formula:(1) % DPPH scavenging = 100 × [(Asample+DPPH−Asample blank)/(ADPPH−Asolvent)]
# The antioxidant activity of the compound was expressed as IC50, which is defined as the concentration that could scavenge 50% of the DPPH free radical. The IC50 values were calculated in GraphPad Prism 7.02 (GraphPad Software, Corp.) The results are given as a mean ± standard deviation (SD) of experiments done in triplicate.
# A-549 = assay: MTS cell viability assay on A-549 cells; format: cell-based; conditions: Homo sapiens, A549; 100 µM, 48 h; Dox 1 µM; mean ± SEM; NA = no activity; read-out: Percentage (%) of inhibition, A-549
# Experimental: as §1, §2
# MCF-7 = assay: MTS cell viability assay on MCF-7 cells; format: cell-based; conditions: Homo sapiens, MCF7, 48 h, Dox 1 µM, mean ± SEM, NA = no activity, read-out: Percentage (%) of inhibition, MCF-7
# Experimental: as §1, §2
compound,measurement,setting,value
"CSc1ccc(C2[C@]3(C(=O)N(c4ccccc4)N=C3C)[C@@]23C(=O)N(c2ccccc2)N=C3C)cc1 (relative stereo) [4u, (5R*,6R*)-11-(4-Thiomethylphenyl)-4,10-dimethyl-2,8-diphenyl-2,3,8,9-tetraazadispiro[4.0.4.1]undeca-3,9-diene-1,7-dione]",inhibition at 100 µM,PC-3,38.7 ± 3.77%
same,CC50 at 48 h,"[1]; RAW cells, 48 h, MTT, read-out: Cytotoxicity CC50",9.3 ± 3.4 µM
same,CC50 at 48 h,"[1]; Statistical Analyses S1, unrounded mean of CC50 in RAW cells, unit inferred, read-out: CC50 original values, x.1 (Mean)",9.3 µM
same,Genotoxic effect in comet assay versus DMSO control,CHO-K1 cells,did not show differences with respect to the control of DMSO
same,IC50,[2],> 300 µM
same,inhibition at 100 µM,A-549,3.64 ± 1.81%
same,inhibition at 100 µM,MCF-7,19.5 ± 2.96%
